The NIST ThermoML archive (doi:10.1016/j.jct.2016.08.001)
Numbers after ± are expanded uncertainties.

Legend:
[1] = xn = mol fraction of the nth substance listed; settings: 100 kPa, Liquid; for speed of sound: Frequency=3 MHz, Sing-around technique in a fixed-path interferometer; for mass density: Vibrating tube method
[2] = refractive index (Na D-line) (dimensionless); xn = mol fraction of the nth substance listed; settings: 100 kPa, Liquid, Standard Abbe refractometry

N#Cc1ccccc1 [benzonitrile] + CCOC(=O)OCC
Settings	mass density, [1] [kg/m3]	refractive index, [2]	speed of sound, [1] [m/s]
298.15 K, x2 = 0	1000.6 ± 1	1.526 ± 0.0016	1415.6 ± 1.5
298.15 K, x2 = 0.0854	998.8 ± 1	1.5123 ± 0.0016	1396.3 ± 1.5
298.15 K, x2 = 0.1886	996.7 ± 1	1.4963 ± 0.0016	1373.1 ± 1.5
298.15 K, x2 = 0.2618	994.9 ± 1	1.4851 ± 0.0016	1356.1 ± 1.5
298.15 K, x2 = 0.3642	992.1 ± 1	1.4698 ± 0.0016	1331.9 ± 1.5
298.15 K, x2 = 0.462	989.3 ± 1	1.4556 ± 0.0016	1308.6 ± 1.5
298.15 K, x2 = 0.5563	986.3 ± 1	1.442 ± 0.0016	1286.1 ± 1.5
298.15 K, x2 = 0.6599	982.7 ± 1	1.4275 ± 0.0016	1261 ± 1.5
298.15 K, x2 = 0.7732	978.5 ± 1	1.412 ± 0.0016	1233.3 ± 1.5
298.15 K, x2 = 0.8703	974.6 ± 1	1.3991 ± 0.0016	1209.4 ± 1.6
303.15 K, x2 = 0	995.9 ± 1	1.5235 ± 0.0016	1398.1 ± 1.5
303.15 K, x2 = 0.0854	994 ± 1	1.5098 ± 0.0016	1378.5 ± 1.5
303.15 K, x2 = 0.1886	991.9 ± 1	1.494 ± 0.0016	1354.8 ± 1.5
303.15 K, x2 = 0.2618	990 ± 1	1.4828 ± 0.0016	1337.7 ± 1.5
303.15 K, x2 = 0.3642	987.2 ± 1	1.4676 ± 0.0016	1313.1 ± 1.5
303.15 K, x2 = 0.462	984.3 ± 1	1.4533 ± 0.0016	1289.5 ± 1.5
303.15 K, x2 = 0.5563	981.2 ± 1	1.4398 ± 0.0016	1266.7 ± 1.5
303.15 K, x2 = 0.6599	977.5 ± 1	1.4253 ± 0.0016	1241.3 ± 1.5
303.15 K, x2 = 0.7732	973.2 ± 1	1.4098 ± 0.0016	1213.3 ± 1.5
303.15 K, x2 = 0.8703	969.2 ± 1	1.3969 ± 0.0016	1189.2 ± 1.5
308.15 K, x2 = 0	991.4 ± 1	1.5209 ± 0.0016	1380.8 ± 1.5
308.15 K, x2 = 0.0854	989.5 ± 1	1.5074 ± 0.0016	1360.8 ± 1.5
308.15 K, x2 = 0.1886	987.2 ± 1	1.4916 ± 0.0016	1336.7 ± 1.5
308.15 K, x2 = 0.2618	985.3 ± 1	1.4806 ± 0.0016	1319.3 ± 1.5
308.15 K, x2 = 0.3642	982.3 ± 1	1.4653 ± 0.0016	1294.4 ± 1.5
308.15 K, x2 = 0.462	979.3 ± 1	1.4511 ± 0.0016	1270.6 ± 1.5
308.15 K, x2 = 0.5563	976.1 ± 1	1.4376 ± 0.0016	1247.4 ± 1.5
308.15 K, x2 = 0.6599	972.3 ± 1	1.4231 ± 0.0016	1221.8 ± 1.5
308.15 K, x2 = 0.7732	967.8 ± 1	1.4076 ± 0.0016	1193.5 ± 1.5
308.15 K, x2 = 0.8703	963.7 ± 1	1.3946 ± 0.0016	1169.1 ± 1.5
313.15 K, x2 = 0	986.9 ± 1	1.5184 ± 0.0016	1363.6 ± 1.5
313.15 K, x2 = 0.0854	984.9 ± 1	1.505 ± 0.0016	1343.2 ± 1.5
313.15 K, x2 = 0.1886	982.5 ± 1	1.4893 ± 0.0016	1318.7 ± 1.5
313.15 K, x2 = 0.2618	980.5 ± 1	1.4783 ± 0.0016	1301 ± 1.5
313.15 K, x2 = 0.3642	977.4 ± 1	1.4631 ± 0.0016	1275.9 ± 1.5
313.15 K, x2 = 0.462	974.2 ± 1	1.4489 ± 0.0016	1251.8 ± 1.5
313.15 K, x2 = 0.5563	970.9 ± 1	1.4353 ± 0.0016	1228.3 ± 1.5
313.15 K, x2 = 0.6599	967 ± 1	1.4208 ± 0.0016	1202.4 ± 1.5
313.15 K, x2 = 0.7732	962.4 ± 1	1.4054 ± 0.0016	1173.8 ± 1.5
313.15 K, x2 = 0.8703	958.2 ± 1	1.3924 ± 0.0016	1149.2 ± 1.5
318.15 K, x2 = 0	982.5 ± 1	1.5158 ± 0.0016	1346.5 ± 1.5
318.15 K, x2 = 0.0854	980.4 ± 1	1.5025 ± 0.0016	1325.7 ± 1.5
318.15 K, x2 = 0.1886	977.9 ± 1	1.487 ± 0.0016	1300.8 ± 1.5
318.15 K, x2 = 0.2618	975.8 ± 1	1.4761 ± 0.0016	1282.9 ± 1.5
318.15 K, x2 = 0.3642	972.5 ± 1	1.4609 ± 0.0016	1257.4 ± 1.5
318.15 K, x2 = 0.462	969.2 ± 1	1.4466 ± 0.0016	1233 ± 1.5
318.15 K, x2 = 0.5563	965.8 ± 1	1.4332 ± 0.0016	1209.3 ± 1.5
318.15 K, x2 = 0.6599	961.7 ± 1	1.4187 ± 0.0016	1183.2 ± 1.5
318.15 K, x2 = 0.7732	956.9 ± 1	1.4032 ± 0.0016	1154.3 ± 1.5
318.15 K, x2 = 0.8703	952.7 ± 1	1.3902 ± 0.0016	1129.5 ± 1.5
323.15 K, x2 = 0	977.9 ± 1	1.5133 ± 0.0016	1329.5 ± 1.5
323.15 K, x2 = 0.0854	975.8 ± 1	1.5002 ± 0.0016	1308.3 ± 1.5
323.15 K, x2 = 0.1886	973.2 ± 1	1.4848 ± 0.0016	1282.9 ± 1.5
323.15 K, x2 = 0.2618	971 ± 1	1.4739 ± 0.0016	1264.9 ± 1.5
323.15 K, x2 = 0.3642	967.6 ± 1	1.4587 ± 0.0016	1239.3 ± 1.5
323.15 K, x2 = 0.462	964.2 ± 1	1.4445 ± 0.0016	1214.5 ± 1.5
323.15 K, x2 = 0.5563	960.6 ± 1	1.431 ± 0.0016	1190.6 ± 1.5
323.15 K, x2 = 0.6599	956.5 ± 1	1.4165 ± 0.0016	1164.1 ± 1.5
323.15 K, x2 = 0.7732	951.5 ± 1	1.401 ± 0.0016	1135 ± 1.5
323.15 K, x2 = 0.8703	947.1 ± 1	1.3881 ± 0.0016	1110 ± 1.5
